From PubChem BioAssay (NCI)
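Growth conditions: 96-well plates. Treatment: test compound, 48 hours, 5 concentrations. Analysis: linear interpolation between bracketing concentrations; unreached endpoints set to highest concentration. Definition used: TGI = concentration required for complete inhibition of growth.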

Tests used:
Test in all cases: NCI-60 cell line screen, 48 h
TK-10 renal = system: TK-10 renal
ACHN renal = system: ACHN renal
SK-OV-3 ovarian = system: SK-OV-3 ovarian
MOLT-4 leukemia = system: MOLT-4 leukemia
K-562 leukemia = system: K-562 leukemia
HCT-116 colon = system: HCT-116 colon
SNB-75 CNS = system: SNB-75 CNS
SK-MEL-5 melanoma = system: SK-MEL-5 melanoma
A549 NSCLC = system: A549 NSCLC
CCRF-CEM leukemia = system: CCRF-CEM leukemia

Compound	TGI (TK-10 renal)	TGI (ACHN renal)	TGI (SK-OV-3 ovarian)	TGI (MOLT-4 leukemia)	TGI (K-562 leukemia)	TGI (HCT-116 colon)	TGI (SNB-75 CNS)	TGI (SK-MEL-5 melanoma)	TGI (A549 NSCLC)	TGI (CCRF-CEM leukemia)
C=CCC(C)C12CCNC(Cc3ccc(O)cc31)C2C (stereo not given)	> 100 µM	> 100 µM	> 100 µM	> 100 µM	> 100 µM	> 100 µM	> 100 µM	> 100 µM	> 100 µM	> 100 µM
c1ccc(CNc2c3c(nc4ccccc24)CCC3)cc1	33.6 µM	40.9 µM	36.2 µM	51 µM	26.2 µM	24.9 µM	43.5 µM	24.4 µM	38.9 µM	20.9 µM
CC(C)/C(Cl)=N/OC(=O)Nc1ccc(F)c(Cl)c1	31.9 µM	4.13 µM	30 µM	4.72 µM	> 100 µM	6.77 µM	32 µM	28.2 µM	37.4 µM	> 20.2 µM
O=C(Nc1ccccc1)O/N=C(/CBr)c1ccccc1	33.8 µM	33.2 µM	95 µM	> 100 µM	> 100 µM	20 µM	30.5 µM	28.1 µM	> 100 µM	> 100 µM
Oc1ccc(/C=C\c2nnc(/C=C\c3ccc(O)c(O)c3)s2)cc1O	21.4 µM	15.2 µM	26.5 µM	11.7 µM	> 27.9 µM	13 µM	15.3 µM	13.9 µM	> 52.8 µM	2.16 µM
